These results are taken from EP3666770A1, “NOVEL HETEROCYCLIC COMPOUNDS AS CDK8/19 INHIBITORS” (Joint Stock Company "Biocad", priority 2017, dated 2019).

By microsomal CLint is commonly meant a measure of how fast metabolising enzymes remove a compound, apart from limits set by blood flow. A high value points to rapid turnover. What is called CC50 is the concentration at which the toxic effect on the cells reaches its halfway point. By IC50 is commonly meant the midpoint of a concentration-inhibition curve.

Read-outs that look alike come from different tables or passages of the source.

Data set [1] is described as follows: Enzyme stability in human liver microsomes. It is filed as in vitro ADME. As to conditions: pH 7.4; 0,5 mg/mL pooled human liver microsomes; 10 µM compound; 37°C; pH=7,4. The procedure: Measuring of candidates' enzyme stability enabled estimation of the stability of the present compounds towards the action of enzymes in liver microsomes.
Enzyme degradation rate was measured by incubating the reaction mixture in a dry block thermostat at 37°C, said reaction mixture comprising 0,5 mg/mL of pooled human liver microsomes (XenoTech, USA, cat#H2620), 10 µM compound, 2 mM β-nicotinamide adenine dinucleotide (Carbosynth, UK, cat#NN10871) and 4 mM magnesium chloride in 0,1 M sodium-phosphate buffer, pH=7,4. The reaction was quenched with acetonitrile (100 µL of acetonitrile / 100 µL of the reaction mixture). After quenching, the samples were centrifuged at 10000 rpm for 10 minutes. Supernatant fluid was tested by chromatographic technique using Agilent1200 (Agilent, USA). Chromatographic analysis was performed in a gradient elution regime with a flow rate of 1 mL/min. A graph of the logarithm of substance's peak area as a function of time was made. The dependent factor of the line corresponded to the elimination rate constant K based on which the drug's half-life t1/2 and degradation rate CLint were calculated: Elimination rate constant (k) = (−gradient) [formula] [formula] V(μL/mg) = (volume of incubation(μL))/(protein in the incubation(mg)) [formula] [formula]
For orientation: Liver microsomes are vesicles of endoplasmic reticulum, rich in cytochrome P450 enzymes.

Data set [2] can be described thus: General cytotoxicity test on HepG2 cells. The conditions noted are these: human, HepG2 cells; 72 h incubation; 200 to 0.78 µM; average values of several tests; read-out: Hep-G2 CC50, mkM. Format: cell-based. The procedure: Cell viability was assessed using the above method. Table 6. […] The results are presented as average values of activity obtained in several tests.

The test system of data set [3] is MV4-11. The data set can be described thus: Cell-based antiproliferative test (AlamarBlue), MV4-11. The conditions noted are these: Homo sapiens, MV4-11, 120 h, read-out: MV-4-11 IC50, mkM. How it is done: Antiproliferative activity of CDK8 inhibitors according to the present invention was measured in a cell-based test on continuous cell cultures MV4-11 (biphenotypic myelomonocytic leukemia, ATCC® CRL-9591™), KG-1 (acute myeloid leukemia, ATCC® CCL-246™), HL-60 (acute promyelocytic leukemia, ATCC® CCL-240™) using a vital stain AlamarBlue (ThermoFisher, #DAL1100). The cells were grown in RPMI-1640 (PanEco, #C330p) medium with addition of 10% FBS (Gibco, #16140-071); washed and resuspended in culture medium with 10% FBS (Gibco, #16140-071) in 96-well culture plates (Corning, #3599) with ≈ 10 ×10^3 cells in […] of medium per well. The compounds in question were dissolved in DMSO and diluted with a medium with 10% FBS (Gibco, #16140-071) to a final concentration ranging form 0 to 100 µM. […] of diluted compounds were then added to each well (final DMSO concentration was less than 1%) and incubated under 5% CO2 atmosphere at 37°C for 120 h. After incubating, 15 µL of AlamarBlue (ThermoFisher, #DAL1100) reagent was added per well, contents of plates were mixed in an orbital shaker (Biosan, Latvia) and further incubated for 3-5 h at 37°C under 5% CO2 atmosphere. Number of living cells was estimated using a microplate spectrophotometer (Tecan Infinite M200Pro, Switzerland) measuring fluorescent signal at the excitation wavelength (λEx) of 540 nm and emission wavelength (λEm) of 590 nm.
IC50 was calculated using Magellan 7.2 software (Tecan, Switzerland) approximating experimental points by four-parameter logistic model with the optimization by Levenberg-Marquardt (table 7, table 7).
On the technique in general: Resazurin is reduced to fluorescent resorufin, in cell work by metabolically active cells.

Data set [4] can be described thus: Chemical stability in simulated gastric fluid (SGF). As to conditions: SGF without enzymes, pH=1,4; 10 µm; 2 hours at 37°C; substance amount in % after thermostatting. Format: physicochemical. How it is done:
(§1) Chemical stability of the compounds described herein was determined in simulated gastric fluid and human blood plasma.
SGF concentrate without enzymes, pH=1,4 (Sigma Ireland, cat#01651) was used as simulated gastric fluid. Initial candidate solution (10 mM in DMSO) was diluted with an SGF working solution to a concentration of […] (test solution). The test solution was incubated in a dry block thermostat for 2 hours at 37°C. HPLC with Agilent 1200 liquid chromatography system (Agilent, USA) was employed to determine peak areas of the compounds in test samples, said peak areas corresponding to the initial test time (prior to incubation) and the final test time (after incubation in a dry block thermostat for 2 hours at 37°C). Chromatographic analysis was performed in a gradient elution regime with a flow rate of 1 mL/min. Substance amount in % in a sample after thermostatting was determined.

A short description of data set [5]: Chemical stability in human blood plasma. Format: in vitro ADME. The conditions noted are these: pooled human blood plasma; 10 µM; 4 hours at 37°C; substance amount in % after thermostatting. How it is done:
as §1
Determination of stability in human blood plasma was performed using pooled human blood plasma taken from ten healthy donors. The initial candidate solution (10 mM in DMSO) was diluted with pooled blood plasma to a concentration of […] (test solution). The test solution was incubated in a dry block thermostat for 4 hours at 37°C. HPLC with Agilent 1200 liquid chromatography system (Agilent, USA) was employed to determine peak areas of the compounds in test samples, said peak areas corresponding to the initial test time (prior to incubation) and the final test time (after incubation in a dry block thermostat for 4 hours at 37°C), proteins were preliminarily precipitated with acetonitrile. Chromatographic analysis was performed in a gradient elution regime with a flow rate of 1 mL/min. Substance amount in % in a sample after thermostatting was determined.

[6] abbreviates: 120 h incubation, average values of several tests.

In the case of `O=C(C1CN(c2ccc3ncn(-c4ccc(-c5cn[nH]c5)cc4)c3c2)C1)N1CCOCC1` [CDK8-1-4, (1-(1-(4-(1H-pyrazol-4-yl)phenyl)-1H-benzo[d]imidazol-6-yl)azetidin-3-yl) (morpholino)methanone], the microsomal CLint at 10 µM in data set [1] stood at 18.8 µL/min/mg. For the same compound, the CC50 at 72 h in data set [2] was above 100 µM. Further, the IC50 in data set [3] (setting [6]) was determined as 0.7 µM. Further, in data set [4], the “Stability in SGF, %” value is given as 98.2%. In data set [5], the “Stability in blood plasma, %” value is listed as 100%.
On to `COC(=O)c1ccc(-n2cnc3c(F)cc(N4CC(C(=O)Nc5ccccc5)C4)cc32)cc1` [CDK8-1-7E, Methyl 4-(6-(3-(phenylcarbamoyl)azetidin-1-yl)-4-fluoro-1H-benzo[d]imidazol-1-yl)benzoate], for which the CC50 at 72 h in data set [2] was above 100 µM. In data set [3] (setting [6]), the IC50 is above 2.5 µM.
For the compound `COc1ccc(-n2cnc3ccc(N4CC(C(=O)N5CCOCC5)C4)cc32)cc1` [CDK8-1-12, (1-(1-(4-Methoxyphenyl)-1H-benzo[d]imidazol-6-yl)azetidin-3-yl)(morpholino) methanone], the microsomal CLint at 10 µM in data set [1] came out at 3 µL/min/mg. Further, the CC50 at 72 h in data set [2] was above 100 µM. Further, the IC50 in data set [3] (setting [6]) was 3.38 µM. Besides, in data set [4], the “Stability in SGF, %” value is reported as 98.1%. For the same compound, the “Stability in blood plasma, %” value in data set [5] is 98%.
Taken in the same sequence, the figures for `Cn1cc(-c2ccc(-n3cnc4ccc(N5CC(C(=O)N6CCOCC6)C5)c(F)c43)cc2)cn1` [CDK8-1-20, (1-(1-(4-(1-methyl-1H-pyrazol-4-yl)phenyl)-7-fluoro-1H-benzo[d]imidazol-6-yl)azetidin-3-yl) (morpholino)methanone] were 12.4 µL/min/mg, above 200 µM, above 1 µM, 99.4% and 100%.
As to `Cn1cc(-c2ccc(-c3cncc4ncc(C(=O)N5CC[C@@H](O)C5)cc34)cc2)cn1` [CDK8-3-4, (R)-(3-Hydroxypyrrolidin-1-yl) (5-(4-(1-methyl-1H-pyrazol-4-yl)phenyl)-1,7-naphthyridin-3-yl)methanone], the CC50 at 72 h in data set [2] worked out at 76.4 µM. Besides, the IC50 in data set [3] (setting [6]) amounted to 7.51 µM. Also, the “Stability in SGF, %” value in data set [4] is given as 100%. For the same compound, the “Stability in blood plasma, %” value in data set [5] stood at 100%.
As to `CN1CCN(C(=O)c2cnc3cncc(-c4ccc(N(C)C)cc4)c3c2)CC1` [CDK8-3-8, (5-(4-(Dimethylamino)phenyl)-1,7-naphthyridin-3-yl)(4-methylpiperazin-1-yl) methanone], the microsomal CLint at 10 µM in data set [1] was 18 µL/min/mg. The CC50 at 72 h in data set [2] was above 200 µM. Moreover, in data set [3] (setting [6]), the IC50 is 7.52 µM. Moreover, in data set [4], the “Stability in SGF, %” value is 95.4%. The “Stability in blood plasma, %” value in data set [5] is recorded as 98%.
In turn, `Cn1cc(-c2ccc(-c3cncc4ncc(N5CC(C(=O)N6CCOCC6)C5)cc34)cc2)cn1` [CDK8-3-9, (1-(5-(4-(1-Methyl-1H-pyrazol-4-yl)phenyl)-1,7-naphthyridin-3-yl)azetidin-3-yl) (morpholino)methanone] returned a microsomal CLint at 10 µM in data set [1] of 8.8 µL/min/mg. Moreover, the CC50 at 72 h in data set [2] was above 20 µM. In addition, the IC50 in data set [3] (setting [6]) was determined as 10 µM. The “Stability in SGF, %” value in data set [4] was 100%. For the same compound, the “Stability in blood plasma, %” value in data set [5] worked out at 100%.
Take `Cn1cc(-c2ccc(-c3cncc4ncc(C(=O)N5CCC[C@@H](O)C5)cc34)cc2)cn1` [CDK8-3-20, (R)-3-(Hydroxypiperidin-1-yl)(5-(4-(1-methyl-1H-pyrazol-4-yl)phenyl)-1,7-naphthyridin-3-yl)methanone]: the IC50 in data set [3] came out at 5.04 µM.
For `CN1CCN(C(=O)c2cnc3cncc(-c4ccc(-c5cnn(C)c5)cc4)c3c2)CC1` [CDK8-3-30, (4-Methylpiperazin-1-yl)(5-(4-(1-methyl-1H-pyrazol-4-yl)phenyl)-1,7-naphthyridin-3-yl)methanone], in data set [2], the CC50 at 72 h was determined as 100 µM. The IC50 in data set [3] (setting [6]) was determined as 0.412 µM.
Consider `Cn1cc(-c2ccc(-c3cncc4ncc(C(=O)N5CCOCC5)cc34)cc2)cn1` [CDK8-3-33, (5-(4-(1-Methyl-1H-pyrazol-4-yl)phenyl)-1,7-naphthyridin-3-yl)(morpholino)methanone], for which the CC50 at 72 h in data set [2] amounted to 100 µM. In addition, the IC50 in data set [3] (setting [6]) turned out to be 2.06 µM.
`CN(C)CCN(C)C(=O)c1cnc2cncc(-c3ccc(-c4cnn(C)c4)cc3)c2c1` [CDK8-3-35, N-(2-(Dimethylamino)ethyl)-N-methyl-5-(4-(1-methyl-1H-pyrazol-4-yl)phenyl)-1,7-naphthyridine-3-carboxamide]: the CC50 at 72 h in data set [2] worked out at 77.4 µM. Also, the IC50 in data set [3] (setting [6]) is 1.84 µM.
Taken in the same sequence, the figures for `COCCNC(=O)c1cnc2cncc(-c3ccc(-n4ccnc4)cc3)c2c1` [CDK8-3-41] were 200 µM and 0.572 µM.
The compound `O=C(c1ccccn1)c1c[nH]c2ncc(-c3ccc(N4CCOCC4)c(O)c3)cc12` [CDK8-4-3, (5-(3-Hydroxy-4-morpholinophenyl)-1H-pyrrolo[2,3-b]pyridin-3-yl) (pyridin-2-yl) methanone] gave a microsomal CLint at 10 µM in data set [1] of 22 µL/min/mg. Moreover, in data set [2], the CC50 at 72 h was above 200 µM. In addition, the concentration for half-maximal inhibition (IC50) in data set [3] (setting [6]) turned out to be 1.49 µM. Moreover, in data set [4], the “Stability in SGF, %” value is 100%. The “Stability in blood plasma, %” value in data set [5] was determined as 100%.
Consider `CN(C)c1ccc(-c2cnc3[nH]cc(C(=O)c4ccncc4)c3c2)cc1O` [CDK8-4-9, (5-(4-(Dimethylamino)-3-hydroxyphenyl)-1H-pyrrolo.[2,3-b]pyridin-3-yl) (pyridin-4-yl)methanone], for which, in data set [1], the intrinsic metabolic clearance (microsomal CLint) at 10 µM was 21.6 µL/min/mg. Further, in data set [2], the CC50 at 72 h was above 200 µM. In addition, the IC50 in data set [3] (setting [6]) came to 2.1 µM. Also, the “Stability in SGF, %” value in data set [4] is 99.5%. In data set [5], the “Stability in blood plasma, %” value is recorded as 100%.
Take `CN1CCN(Cc2ccc(-c3ccnc4ccc(N5CCC(C)(C(N)=O)CC5)cc34)cc2)CC1` [CDK8-6-3, 4-Methyl-1-(4-(4-((4-methylpiperazin-1-yl)methyl)phenyl)quinolin-6-yl) piperidine-4-carboxamide]: the microsomal CLint at 10 µM in data set [1] was 18.6 µL/min/mg. Also, the CC50 at 72 h in data set [2] was above 60 µM. The IC50 in data set [3] (setting [6]) was found to be 3.18 µM. The “Stability in SGF, %” value in data set [4] was 100%.
As for `COCCOC(=O)c1cnc2cncc(-c3ccc(-c4cnn(C)c4)cc3)c2c1` [CDK8_3_28, 2-Methoxyethyl-5-[4-(methyl-1-H-pyrazol-4-yl)phenyl]-1,7-naphthyridine-3-carboxylate], the CC50 at 72 h in data set [2] came out at 48.4 µM. Moreover, the 50% inhibitory concentration (IC50) in data set [3] (setting [6]) worked out at 0.871 µM.
